In US6747012B1, “Crystalline anthracycline antibiotic and process for producing the same” (Mercian Corporation, priority 1997, dated 2004):

Key:
Format in all cases: physicochemical
[1] = Tests for hygroscopicity (critical relative humidity); conditions: for Critical relative humidity (%): stored at 30° C., relative humidities 32 to 91%, until steady state, calculated from increases or decreases in moisture content, hydrochloride
Experimental: Samples of the powders (or crystalline powders) obtained in Examples 1-8 were stored at 30° C. and at relative humidities ranging from 32 to 91%. Their moisture contents were measured until a steady state was reached.

[2] = Residual solvent content by gas chromatography; conditions: for Residual solvent content (%): gas chromatography (GC), hydrochloride
Experimental: Each of the same samples as used in Example 12 was analyzed by gas chromatography (GC) to determine its residual solvent content.
(Operating Conditions for Analysis by GC)
Detector: Flame ionization detector.
Column temperature: Operated at 40° C. for 5 minutes, and then raised to 80° C. in 5 minutes and held at that temperature.
Vaporization chamber temperature: A constant temperature around 200°.
Flow rate: A constant flow rate at which the retention time of an internal standard substance (dioxane) is about 6 minutes.

[3] = Tests for chemical stability (storage at 60° C., HPLC); conditions: for Amount of remaining DM (%): hermetically sealed container, 60° C. for 1 month, HPLC, hydrochloride
Experimental: Each of the same samples as used in Example 12 was placed in a hermetically sealed container and stored at 60° C. for 1 month. Then, the sample was analyzed by HPLC to determine the DM content in the sample.
(Conditions for Analysis by HPLC)
Column: YMC A-312 (ODS) (manufactured by YMC Co., Ltd.).
Mobile phase: Acetonitrile-water (38:62) (adjusted to pH 2.2 with phosphoric acid).
Flow velocity: About 1.5 ml/min.

| Critical relative humidity (%) [1] | Residual solvent content (%) [2] | Amount of remaining DM (%) [3] | hygroscopicity (in words) ([1]; conclusion from Table 1) | residual solvent content (in words) ([2]; conclusion from Table 3) | chemical stability (in words) ([3]; conclusion from Table 2) | SMILES |
| --- | --- | --- | --- | --- | --- | --- |
| 29% | 0.19% | 97.5% | – | – | – | COc1cccc2c1C(=O)c1c(O)c3c(c(O)c1C2=O)CC(O)(C(C)=O)CC3OC1CC(N)C(O)C(C)O1.Cl (stereo not drawn) [Ex.5, DM hydrochloride] |
| 73% | 0.40% | 100% | very low hygroscopicity | within an acceptable limit | excellent chemical stability | COc1cccc2c1C(=O)c1c(O)c3c(c(O)c1C2=O)CC(O)(C(C)=O)CC3OC1CC(N)C(O)C(C)O1.Cl (stereo not drawn) [Ex.2, DM hydrochloride] |
| 41% | 0.05% | 97.2% | – | – | – | COc1cccc2c1C(=O)c1c(O)c3c(c(O)c1C2=O)CC(O)(C(C)=O)CC3OC1CC(N)C(O)C(C)O1.Cl (stereo not drawn) [Ex.7, DM hydrochloride] |
| 53% | 0.95% | 96.5% | – | – | – | COc1cccc2c1C(=O)c1c(O)c3c(c(O)c1C2=O)CC(O)(C(C)=O)CC3OC1CC(N)C(O)C(C)O1.Cl (stereo not drawn) [Ex.8, DM hydrochloride] |
| 28% | 0.50% | 90.4% | – | – | – | COc1cccc2c1C(=O)c1c(O)c3c(c(O)c1C2=O)CC(O)(C(C)=O)CC3OC1CC(N)C(O)C(C)O1.Cl (stereo not drawn) [Ex.4, DM hydrochloride] |
| 34% | 0.14% | 91.4% | – | – | – | COc1cccc2c1C(=O)c1c(O)c3c(c(O)c1C2=O)CC(O)(C(C)=O)CC3OC1CC(N)C(O)C(C)O1.Cl (stereo not drawn) [Ex.1, DM hydrochloride] |
| 41% | 0.03% | 97.1% | – | – | – | COc1cccc2c1C(=O)c1c(O)c3c(c(O)c1C2=O)CC(O)(C(C)=O)CC3OC1CC(N)C(O)C(C)O1.Cl (stereo not drawn) [Ex.3, DM hydrochloride] |
| 29% | 0.18% | 94.2% | – | – | – | COc1cccc2c1C(=O)c1c(O)c3c(c(O)c1C2=O)CC(O)(C(C)=O)CC3OC1CC(N)C(O)C(C)O1.Cl (stereo not drawn) [Ex.6, DM hydrochloride] |
